These antisense oligonucleotides have a phosphorothioate backbone; sugars and methylation of C are not fully specified.
Also: test concentration or dose not given here.

The first series addresses AKT2. To be noted: ASO.
As for ACCAGGATGACTTTGCCA, the remaining target (mRNA or protein) (fraction of control) was 0.25.

The sequence ACTCCATCACAAAGCACA showed a remaining target (mRNA or protein) (fraction of control) of 0.2.

For ACTGTGTGAGCGACTTCA, the remaining target (mRNA or protein) (fraction of control) is 0.38.

AGTTGATGCTGAGGAAGA registered a remaining target (mRNA or protein) (fraction of control) of 0.51.

ATGACAAAGGTGTTGGGT displayed a remaining target (mRNA or protein) (fraction of control) of 0.29.

Turning to ATGACCTCCTTGGCATCG, the remaining target (mRNA or protein) (fraction of control) amounted to 0.18.

On to ATGATGACTTCCTTTCGC, for which the remaining target (mRNA or protein) (fraction of control) is 0.43.

With CAAGGAGTTTGAGATAGT, the remaining target (mRNA or protein) (fraction of control) is 0.36.

For the sequence CAGTCGTGGAGGAGTCAC, the remaining target (mRNA or protein) (fraction of control) came out at 0.42.

For the sequence CCAATGAAGGAGCCGTCG, the remaining target (mRNA or protein) (fraction of control) was no less than 1.

CCAGCCTTCTTTGATGAC returned a remaining target (mRNA or protein) (fraction of control) of 0.25.

In turn, CCCGCTCCTCTGTGAAGA yielded a remaining target (mRNA or protein) (fraction of control) of 0.08.

CCGCATCCACTCCTCCCT showed a remaining target (mRNA or protein) (fraction of control) of 0.12.

Sequence CCGCTGCTTGAGGCTGTT yielded a remaining target (mRNA or protein) (fraction of control) of 0.29.

In the case of CGTGCGTCCTCTGCGTGG, the remaining target (mRNA or protein) (fraction of control) is 0.14.

On to CTACGGAGAAGTTGTTTA, for which the remaining target (mRNA or protein) (fraction of control) turned out to be 0.42.

For the sequence CTCCTTGGCATCGCTGGG, the remaining target (mRNA or protein) (fraction of control) came to 0.29.

Take CTTGAGGCTGTTGGCGAC: the remaining target (mRNA or protein) (fraction of control) was determined as 0.18.

With CTTTGATGACAGACACCT, the remaining target (mRNA or protein) (fraction of control) is 0.23.

Regarding GAGCCACACTTGTAGTCC, the remaining target (mRNA or protein) (fraction of control) is 0.11.

GAGGCACCGTGGACAGGG yielded a remaining target (mRNA or protein) (fraction of control) of 0.33.

For the sequence GATGGACTGGGCGGTAAA, the remaining target (mRNA or protein) (fraction of control) worked out at 0.22.

For the sequence GCCTTGCTGACCGCCACT, the remaining target (mRNA or protein) (fraction of control) was determined as 0.18.

The sequence GGGTGCCTGGTGTTCTGG had a remaining target (mRNA or protein) (fraction of control) of 0.3.

In the case of GTCTTGATGTATTCACCA, the remaining target (mRNA or protein) (fraction of control) came to 0.52.

GTGAGCGACTTCATCCTT had a remaining target (mRNA or protein) (fraction of control) of 0.25.

GTGATGGCAGCGAGCGTG had a remaining target (mRNA or protein) (fraction of control) of 0.38.

TCGGTGACTGTGTGAGCG gave a remaining target (mRNA or protein) (fraction of control) of 0.34.

In the case of TGACAGACACCTCATTCA, the remaining target (mRNA or protein) (fraction of control) amounted to 0.15.

TGGACAGGGCACAGTCTC gave a remaining target (mRNA or protein) (fraction of control) of 0.3.

Regarding TGGCATTCTGCTACGGAG, the remaining target (mRNA or protein) (fraction of control) was 0.18.

In turn, TGGTCACTTTAGCCCGTG displayed a remaining target (mRNA or protein) (fraction of control) of no less than 1.

As for TGTGATTGTGATGGACTG, the remaining target (mRNA or protein) (fraction of control) amounted to 0.3.

As for TGTGGAGCCAGCCTTCTT, the remaining target (mRNA or protein) (fraction of control) was found to be 0.28.

TTCCATCTCCTCAGTCGT showed a remaining target (mRNA or protein) (fraction of control) of 0.19.

The target in another series is IL1R1. The settings on record: ASO.
For the sequence AACTTCTCCATGCTACCCGA, the remaining target (mRNA or protein) (fraction of control) was 0.75.

AGATGCCTTGCGTTGGCTGC returned a remaining target (mRNA or protein) (fraction of control) of 0.5.

AGGGCTGCGGCGGCTCCACT displayed a remaining target (mRNA or protein) (fraction of control) of 0.75.

Sequence AGTAACACTTTCATATTCTT came in with a remaining target (mRNA or protein) (fraction of control) of 0.75.

For the sequence AGTCAAAGGAAGTTCACGGG, the remaining target (mRNA or protein) (fraction of control) came to 0.5.

Regarding AGTCCTCCGTCTCCTGCAAC, the remaining target (mRNA or protein) (fraction of control) was found to be 0.75.

Consider AGTGCTACGGTGCGGGCGCG, for which the remaining target (mRNA or protein) (fraction of control) is 0.75.

CACCGAGGAGCAGGCGCGGC returned a remaining target (mRNA or protein) (fraction of control) of 0.75.

For CACTGCAACCTCCGTCTCCC, the remaining target (mRNA or protein) (fraction of control) is 0.75.

Sequence CACTTAGCCGTGCGTTGGTG showed a remaining target (mRNA or protein) (fraction of control) of 0.5.

With CATAACCTGGCCTGCAACGC, the remaining target (mRNA or protein) (fraction of control) is 0.75.

As for CATTCCATGAACTCTGCAAG, the remaining target (mRNA or protein) (fraction of control) was found to be 0.75.

The sequence CATTCCTGCCGCTCCCTGGG showed a remaining target (mRNA or protein) (fraction of control) of 0.75.

Sequence CCCTTCCATAAATGAACAGC showed a remaining target (mRNA or protein) (fraction of control) of 0.75.

CCCTTGGGCTGTGGATGACT gave a remaining target (mRNA or protein) (fraction of control) of 0.75.

In turn, CCTCCACCCACGCTTATCCA came in with a remaining target (mRNA or protein) (fraction of control) of 0.29.

Take CCTCCAGGGCTGCGGCGGCT: the remaining target (mRNA or protein) (fraction of control) amounted to 0.75.

Sequence CGCGCTCGGCTCCTCCCGGC returned a remaining target (mRNA or protein) (fraction of control) of 0.75.

In turn, CGTGCCAGTGTGGAGTGAGG returned a remaining target (mRNA or protein) (fraction of control) of 0.23.

CTCTCCACCGAGGAGCAGGC had a remaining target (mRNA or protein) (fraction of control) of 0.75.

CTTGGAGAAGGCCTTGTCTT: the remaining target (mRNA or protein) (fraction of control) was 0.75.

The sequence CTTTCATATTCTTCTTGGAG displayed a remaining target (mRNA or protein) (fraction of control) of 0.75.

GAAACAAATAAGTCTGAGTA showed a remaining target (mRNA or protein) (fraction of control) of 0.75.
